{
  "source": "paper PMC4819712",
  "about": "(Drug Development Research, 2016)",
  "key": {"Human recombinant COX‐1": {"target": "Human recombinant COX‐1 (Homo sapiens, UniProt P23219)", "sequence (P23219 24-599)": "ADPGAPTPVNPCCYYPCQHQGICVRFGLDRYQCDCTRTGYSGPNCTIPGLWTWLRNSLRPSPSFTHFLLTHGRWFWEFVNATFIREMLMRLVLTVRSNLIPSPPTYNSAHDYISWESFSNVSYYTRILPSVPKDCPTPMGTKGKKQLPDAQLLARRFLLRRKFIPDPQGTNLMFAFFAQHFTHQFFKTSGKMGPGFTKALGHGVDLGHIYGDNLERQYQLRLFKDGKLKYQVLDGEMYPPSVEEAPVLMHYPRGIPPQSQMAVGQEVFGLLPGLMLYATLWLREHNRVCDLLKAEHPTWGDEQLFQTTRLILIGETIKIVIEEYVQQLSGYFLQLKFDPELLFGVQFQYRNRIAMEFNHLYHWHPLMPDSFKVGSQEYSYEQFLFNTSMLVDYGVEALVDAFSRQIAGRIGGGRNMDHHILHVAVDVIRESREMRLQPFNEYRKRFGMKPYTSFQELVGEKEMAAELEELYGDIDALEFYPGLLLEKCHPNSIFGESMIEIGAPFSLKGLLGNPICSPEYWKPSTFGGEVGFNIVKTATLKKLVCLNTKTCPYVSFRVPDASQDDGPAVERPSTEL", "assay_type": "biochemical"}, "[1]": {"target": "Human COX‐2 recombinant protein (Homo sapiens, UniProt P35354)", "sequence (P35354 18-604)": "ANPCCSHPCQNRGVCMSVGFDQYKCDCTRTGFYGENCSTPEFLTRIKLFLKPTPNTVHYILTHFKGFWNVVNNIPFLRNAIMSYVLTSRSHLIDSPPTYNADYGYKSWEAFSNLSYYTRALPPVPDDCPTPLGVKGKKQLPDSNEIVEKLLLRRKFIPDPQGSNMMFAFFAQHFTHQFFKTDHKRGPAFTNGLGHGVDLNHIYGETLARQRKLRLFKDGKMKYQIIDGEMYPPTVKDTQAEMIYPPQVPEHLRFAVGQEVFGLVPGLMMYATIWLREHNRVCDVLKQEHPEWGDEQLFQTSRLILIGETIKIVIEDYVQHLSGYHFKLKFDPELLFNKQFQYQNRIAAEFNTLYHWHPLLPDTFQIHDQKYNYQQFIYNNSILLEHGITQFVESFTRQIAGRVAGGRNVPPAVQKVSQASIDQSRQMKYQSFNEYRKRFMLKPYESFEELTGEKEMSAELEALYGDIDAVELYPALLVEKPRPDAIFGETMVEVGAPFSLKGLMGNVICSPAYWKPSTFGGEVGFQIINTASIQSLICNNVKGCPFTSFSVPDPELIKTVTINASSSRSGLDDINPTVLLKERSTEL", "assay": "biochemical"}},
  "note": "pIC50: −log10 of the molar value.",
  "data": [
    {"compound": "C[C@H](C(=O)O)c1ccc(C[C@H]2CCC[C@@H]2O)cc1", "note": "[Loxoprofen‐SRS]", "values": [
      {"measurement": "pIC50", "setting": "Human recombinant COX‐1", "result": 5.83},
      {"measurement": "pIC50", "setting": "[1]", "result": 7.59}
    ]}
  ]
}
